The target in the test is Factor D (Homo sapiens, UniProt P00746). In words: Factor D esterolytic assay (Z-Lys-SBzl thioester substrate, DTNB, 405 nm). Type of test: biochemical. As to conditions: substrate Z-Lys-SBzl 1.29 mM, 100 mM HEPES, 500 mM NaCl, pH 7.5, 10% DMSO, tested a minimum of three times. In short, it runs like this: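 Human Factor D hydrolysis of Z-Lys-SBzl (1.29 mM) monitored at 405 nm via DTNB thiol detection for 600 s, 690 nm background subtracted. Buffer 100 mM HEPES, 500 mM NaCl, pH 7.5, 10% DMSO; substrate added immediately or after room-temperature preincubation. IC50 from percent inhibition of rate, at least three tests.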

By IC50 is commonly meant the concentration that inhibits the measured activity by half.

Sequence of Factor D (P00746 26-253): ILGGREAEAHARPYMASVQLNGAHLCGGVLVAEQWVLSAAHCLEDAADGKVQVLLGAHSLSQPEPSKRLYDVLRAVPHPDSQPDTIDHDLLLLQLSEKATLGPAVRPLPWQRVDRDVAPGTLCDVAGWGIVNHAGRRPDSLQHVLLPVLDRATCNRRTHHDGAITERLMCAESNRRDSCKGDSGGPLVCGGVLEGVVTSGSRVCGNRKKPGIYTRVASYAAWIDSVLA

As to `Cc1ncc(NC(=O)[C@@H]2C[C@H]3C[C@H]3N2C(=O)Cn2c3ncnc(N)c3c3cc(C(F)(F)F)cc(C)c32)nc1Br` [Compound 313b, (1R,3S,5R)-2-(2-(4-amino-8-methyl-6-(trifluoromethyl)-9H-pyrimido[4,5-b]indol-9-yl)acetyl)-N-(6-bromo-5-methylpyrazin-2-yl)-2-azabicyclo[3.1.0]hexane-3-carboxamide], the IC50 was less than 100 nM.
For `Cc1cc(C)c2c(c1)c1c(N)ncnc1n2CC(=O)N1[C@H](C(=O)Nc2cncc(Br)n2)C[C@@]2(C)C[C@@H]12` [Compound 314a, (1R,3S,5R)-2-(2-(4-amino-6,8-dimethyl-9H-pyrimido[4,5-b]indol-9-yl)acetyl)-N-(6-bromopyrazin-2-yl)-5-methyl-2-azabicyclo[3.1.0]hexane-3-carboxamide] the value was less than 100 nM.
Take `Cc1ncc(-c2cc(C)c3c(c2)c2c(N)ncnc2n3CC(=O)N2[C@H](C(=O)Nc3cccc(Cl)n3)C[C@@]3(C)C[C@@H]23)cn1` [Compound 315a, (1R,3S,5R)-2-(2-(4-amino-8-methyl-6-(2-methylpyrimidin-5-yl)-9H-pyrimido[4,5-b]indol-9-yl)acetyl)-N-(6-chloropyridin-2-yl)-5-methyl-2-azabicyclo[3.1.0]hexane-3-carboxamide]: the IC50 was less than 100 nM.
For `Cc1ncc(-c2cc(C)c3c(c2)c2c(N)ncnc2n3CC(=O)N2C[C@](C)(F)C[C@H]2C(=O)Nc2cccc(Br)n2)cn1` [Compound 316a, (2S,4R)-1-(2-(4-amino-8-methyl-6-(2-methylpyrimidin-5-yl)-9H-pyrimido[4,5-b]indol-9-yl)acetyl)-N-(6-bromopyridin-2-yl)-4-fluoro-4-methylpyrrolidine-2-carboxamide] the value was less than 100 nM; for `Cc1cc(C(F)(F)F)cc2c3c(N)ncnc3n(CC(=O)N3[C@@H]4C[C@@H]4C[C@H]3C(=O)Nc3nc(Br)ccc3F)c12` [Compound 317c, (1R,3S,5R)-2-(2-(4-amino-8-methyl-6-(trifluoromethyl)-9H-pyrimido[4,5-b]indol-9-yl)acetyl)-N-(6-bromo-3-fluoropyridin-2-yl)-2-azabicyclo[3.1.0]hexane-3-carboxamide], 100 to 1000 nM; for `Cc1ccc(Cl)nc1NC(=O)[C@@H]1C[C@H]2C[C@H]2N1C(=O)Cn1c2ncnc(N)c2c2cc(C(F)(F)F)cc(C)c21` [Compound 318c, (1R,3S,5R)-2-(2-(4-amino-8-methyl-6-(trifluoromethyl)-9H-pyrimido[4,5-b]indol-9-yl)acetyl)-N-(6-chloro-3-methylpyridin-2-yl)-2-azabicyclo[3.1.0]hexane-3-carboxamide], less than 100 nM.
As for `Cc1cc(C(F)(F)F)cc2c3c(N)ncnc3n(CC(=O)N3[C@@H]4C[C@@H]4C[C@H]3C(=O)Nc3nc(Cl)ccc3F)c12` [Compound 319c, (1R,3S,5R)-2-(2-(4-amino-8-methyl-6-(trifluoromethyl)-9H-pyrimido[4,5-b]indol-9-yl)acetyl)-N-(6-chloro-3-fluoropyridin-2-yl)-2-azabicyclo[3.1.0]hexane-3-carboxamide], the IC50 is less than 100 nM.
In the case of `Cc1cc(C(F)(F)F)cc2c3c(N)ncnc3n(CC(=O)N3C[C@](C)(F)C[C@H]3C(=O)Nc3cccc(Cl)n3)c12` [Compound 320c, (2S,4R)-1-(2-(4-amino-8-methyl-6-(trifluoromethyl)-9H-pyrimido[4,5-b]indol-9-yl)acetyl)-N-(6-chloropyridin-2-yl)-4-fluoro-4-methylpyrrolidine-2-carboxamide], the IC50 was less than 100 nM.
For `Cc1cc(C(F)(F)F)cc2c3c(N)ncnc3n(CC(=O)N3C[C@H](F)C[C@H]3C(=O)Nc3cncc(Br)n3)c12` [Compound 321d, (2S,4R)-1-(2-(4-amino-8-methyl-6-(trifluoromethyl)-9H-pyrimido[4,5-b]indol-9-yl)acetyl)-N-(6-bromopyrazin-2-yl)-4-fluoropyrrolidine-2-carboxamide], the concentration for half-maximal inhibition (IC50) is less than 100 nM.
`Cc1cc(F)c(Br)nc1NC(=O)[C@@H]1C[C@H]2C[C@H]2N1C(=O)Cn1c2ncnc(N)c2c2cc(C(F)(F)F)cc(C)c21` [Compound 322c, (1R,3S,5R)-2-(2-(4-amino-8-methyl-6-(trifluoromethyl)-9H-pyrimido[4,5-b]indol-9-yl)acetyl)-N-(6-bromo-5-fluoro-3-methylpyridin-2-yl)-2-azabicyclo[3.1.0]hexane-3-carboxamide]: the IC50 was less than 100 nM.
In the case of `Cc1ccc(Br)nc1NC(=O)[C@@H]1C[C@@](C)(F)CN1C(=O)Cn1c2ncnc(N)c2c2cc(C(F)(F)F)cc(C)c21` [Compound 323a, (2S,4R)-1-(2-(4-amino-8-methyl-6-(trifluoromethyl)-9H-pyrimido[4,5-b]indol-9-yl)acetyl)-N-(6-bromo-3-methylpyridin-2-yl)-4-fluoro-4-methylpyrrolidine-2-carboxamide], the IC50 was less than 100 nM.
The same measure for `Cc1cc(C(F)(F)F)cc2c3c(N)ncnc3n(CC(=O)N3CCS[C@H]3C(=O)Nc3cccc(Br)n3)c12` [Compound 324a, (S)-3-(2-(4-amino-8-methyl-6-(trifluoromethyl)-9H-pyrimido[4,5-b]indol-9-yl)acetyl)-N-(6-bromopyridin-2-yl)thiazolidine-2-carboxamide]: less than 100 nM.
The same measure for `Cc1cc(C(F)(F)F)cc2c3c(N)ncnc3n(CC(=O)N3C[C@H](F)C[C@H]3C(=O)Nc3cncc(Cl)n3)c12` [Compound 325c, (2S,4R)-1-(2-(4-amino-8-methyl-6-(trifluoromethyl)-9H-pyrimido[4,5-b]indol-9-yl)acetyl)-N-(6-chloropyrazin-2-yl)-4-fluoropyrrolidine-2-carboxamide]: less than 100 nM; for `Cc1cc(C(F)(F)F)cc2c3c(N)ncnc3n(CC(=O)N3[C@@H]4C[C@@H]4C[C@H]3C(=O)Nc3cncc(Cl)n3)c12` [Compound 326c, (1R,3S,5R)-2-(2-(4-amino-8-methyl-6-(trifluoromethyl)-9H-pyrimido[4,5-b]indol-9-yl)acetyl)-N-(6-chloropyrazin-2-yl)-2-azabicyclo[3.1.0]hexane-3-carboxamide]: less than 100 nM.
The same measure for `Cc1cc(C(F)(F)F)cc2c3c(N)ncnc3n(CC(=O)N3[C@H](C(=O)Nc4cncc(Cl)n4)C[C@@]4(C)C[C@@H]34)c12` [Compound 327c, (1R,3S,5R)-2-(2-(4-amino-8-methyl-6-(trifluoromethyl)-9H-pyrimido[4,5-b]indol-9-yl)acetyl)-N-(6-chloropyrazin-2-yl)-5-methyl-2-azabicyclo[3.1.0]hexane-3-carboxamide]: less than 100 nM; for `COc1cc2c(cc1C)c1c(N)ncnc1n2CC(=O)N1[C@@H]2C[C@@H]2C[C@H]1C(=O)Nc1cccc(Br)n1` [Compound 328f, (1R,3S,5R)-2-(2-(4-amino-7-methoxy-6-methyl-9H-pyrimido[4,5-b]indol-9-yl)acetyl)-N-(6-bromopyridin-2-yl)-2-azabicyclo[3.1.0]hexane-3-carboxamide]: less than 100 nM; for `COc1cc2c(cc1C)c1c(N)ncnc1n2CC(=O)N1[C@H](C(=O)Nc2cccc(Br)n2)C[C@@]2(C)C[C@@H]12` [Compound 329a, (1R,3S,5R)-2-(2-(4-amino-7-methoxy-6-methyl-9H-pyrimido[4,5-b]indol-9-yl)acetyl)-N-(6-bromopyridin-2-yl)-5-methyl-2-azabicyclo[3.1.0]hexane-3-carboxamide]: less than 100 nM.
On to `COc1cc2c3c(N)ncnc3n(CC(=O)N3[C@@H]4C[C@@H]4C[C@H]3C(=O)Nc3cccc(Br)n3)c2cc1F` [Compound 330f, (1R,3S,5R)-2-(2-(4-amino-7-fluoro-6-methoxy-9H-pyrimido[4,5-b]indol-9-yl)acetyl)-N-(6-bromopyridin-2-yl)-2-azabicyclo[3.1.0]hexane-3-carboxamide], for which the 50% inhibitory concentration (IC50) is less than 100 nM.
As to `COc1cc2c3c(N)ncnc3n(CC(=O)N3[C@H](C(=O)Nc4cccc(Br)n4)C[C@@]4(C)C[C@@H]34)c2cc1F` [Compound 331a, (1R,3S,5R)-2-(2-(4-amino-7-fluoro-6-methoxy-9H-pyrimido[4,5-b]indol-9-yl)acetyl)-N-(6-bromopyridin-2-yl)-5-methyl-2-azabicyclo[3.1.0]hexane-3-carboxamide], the IC50 is less than 100 nM.
For `Cc1ccc(Cl)nc1NC(=O)[C@@H]1C[C@@]2(C)C[C@H]2N1C(=O)Cn1c2ncnc(N)c2c2cc(C(F)(F)F)cc(C)c21` [Compound 332c, (1R,3S,5R)-2-(2-(4-amino-8-methyl-6-(trifluoromethyl)-9H-pyrimido[4,5-b]indol-9-yl)acetyl)-N-(6-chloro-3-methylpyridin-2-yl)-5-methyl-2-azabicyclo[3.1.0]hexane-3-carboxamide], the IC50 was less than 100 nM.
For `Cc1cc(F)c(Br)nc1NC(=O)[C@@H]1C[C@@]2(C)C[C@H]2N1C(=O)Cn1c2ncnc(N)c2c2cc(C(F)(F)F)cc(C)c21` [Compound 333c, (1R,3S,5R)-2-(2-(4-amino-8-methyl-6-(trifluoromethyl)-9H-pyrimido[4,5-b]indol-9-yl)acetyl)-N-(6-bromo-5-fluoro-3-methylpyridin-2-yl)-5-methyl-2-azabicyclo[3.1.0]hexane-3-carboxamide] the value was less than 100 nM; for `C[C@@]12C[C@@H](C(=O)Nc3cccc(Br)n3)N(C(=O)Cn3c4ccc(OC(F)(F)F)cc4c4c(N)ncnc43)[C@@H]1C2` [Compound 334a, (1R,3S,5R)-2-(2-(4-amino-6-(trifluoromethoxy)-9H-pyrimido[4,5-b]indol-9-yl)acetyl)-N-(6-bromopyridin-2-yl)-5-methyl-2-azabicyclo[3.1.0]hexane-3-carboxamide], less than 100 nM; for `Nc1ncnc2c1c1cc(-c3ccc(F)cc3)ccc1n2CC(=O)N1[C@@H]2C[C@@H]2C[C@H]1C(=O)Nc1cccc(Br)n1` [Compound 335c, (1R,3S,5R)-2-(2-(4-amino-6-(4-fluorophenyl)-9H-pyrimido[4,5-b]indol-9-yl)acetyl)-N-(6-bromopyridin-2-yl)-2-azabicyclo[3.1.0]hexane-3-carboxamide], less than 100 nM.

The record behind these values is patent US12679843B2, “Pyrrolopyrimidine amines as complement inhibitors” (BioCryst Pharmaceuticals, Inc., priority 2020, dated 2026).
